“And” between values parts separate entries of the source, which are not always exact repeats. Equal values may be shown once.
These compounds were tested against MAPK14 (UniProt Q16539) (assay: p38 alpha Kinase Inhibition Assay). Conditions: not given.
MAPK14, sequence (Q16539 whole entry, looked up): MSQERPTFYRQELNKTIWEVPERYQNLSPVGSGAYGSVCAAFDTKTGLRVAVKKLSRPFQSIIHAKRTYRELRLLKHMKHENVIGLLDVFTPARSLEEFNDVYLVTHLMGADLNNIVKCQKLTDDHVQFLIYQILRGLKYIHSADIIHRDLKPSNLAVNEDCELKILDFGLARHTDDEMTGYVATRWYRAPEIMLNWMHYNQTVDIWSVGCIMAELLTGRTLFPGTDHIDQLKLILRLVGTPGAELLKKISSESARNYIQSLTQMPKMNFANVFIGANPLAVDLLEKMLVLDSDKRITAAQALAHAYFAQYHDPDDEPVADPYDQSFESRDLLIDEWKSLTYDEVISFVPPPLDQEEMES

IC50	SMILES
505 nM	O=C(c1ccc2ccn(C(=O)c3ccncc3)c2c1)N1CCC(Cc2ccccc2)CC1
4970 to 5520 nM	O=C(c1ccc2cc[nH]c2c1)N1CCN(Cc2ccccc2)CC1
150 to 242 nM and 523 to 577 nM	O=C(c1ccc2[nH]ccc2c1)N1CCC(Cc2ccccc2)CC1

The next lines start with the compound.

SMILES	IC50
O=C(c1ccc2nc[nH]c2c1)N1C2CCC1CC(Cc1ccccc1)C2 (configuration not stated)	2150 nM
CCNCCCn1ccc2cc(C(=O)N3CCC(Cc4ccccc4)CC3)c(Cl)cc21	199 nM
CCNCCCn1ccc2cc(C(=O)N3CCC(Cc4ccc(F)cc4)CC3)ccc21	354 nM
O=C(c1ccc2c(ccn2-c2ccncc2)c1)N1CCC(Cc2ccccc2)CC1	800 nM
O=C(c1ccc2c(ccn2C(=O)c2ccncc2)c1)N1CCC(Cc2ccccc2)CC1	405 to 871 nM

Same assay, conditions: concentration not given here

inhibition [%]	SMILES
51	O=C(c1ccc2cc[nH]c2c1)N1CCC(Cc2ccc(F)cc2)C1 (configuration not stated)
63	COc1cc2[nH]ccc2cc1C(=O)N1C2CCC1CC(Cc1ccccc1)C2 (configuration not stated)

Each compound was assayed against EGFR (UniProt P00533) (assay: not given). Conditions: not given.
EGFR, sequence (P00533 whole entry, looked up): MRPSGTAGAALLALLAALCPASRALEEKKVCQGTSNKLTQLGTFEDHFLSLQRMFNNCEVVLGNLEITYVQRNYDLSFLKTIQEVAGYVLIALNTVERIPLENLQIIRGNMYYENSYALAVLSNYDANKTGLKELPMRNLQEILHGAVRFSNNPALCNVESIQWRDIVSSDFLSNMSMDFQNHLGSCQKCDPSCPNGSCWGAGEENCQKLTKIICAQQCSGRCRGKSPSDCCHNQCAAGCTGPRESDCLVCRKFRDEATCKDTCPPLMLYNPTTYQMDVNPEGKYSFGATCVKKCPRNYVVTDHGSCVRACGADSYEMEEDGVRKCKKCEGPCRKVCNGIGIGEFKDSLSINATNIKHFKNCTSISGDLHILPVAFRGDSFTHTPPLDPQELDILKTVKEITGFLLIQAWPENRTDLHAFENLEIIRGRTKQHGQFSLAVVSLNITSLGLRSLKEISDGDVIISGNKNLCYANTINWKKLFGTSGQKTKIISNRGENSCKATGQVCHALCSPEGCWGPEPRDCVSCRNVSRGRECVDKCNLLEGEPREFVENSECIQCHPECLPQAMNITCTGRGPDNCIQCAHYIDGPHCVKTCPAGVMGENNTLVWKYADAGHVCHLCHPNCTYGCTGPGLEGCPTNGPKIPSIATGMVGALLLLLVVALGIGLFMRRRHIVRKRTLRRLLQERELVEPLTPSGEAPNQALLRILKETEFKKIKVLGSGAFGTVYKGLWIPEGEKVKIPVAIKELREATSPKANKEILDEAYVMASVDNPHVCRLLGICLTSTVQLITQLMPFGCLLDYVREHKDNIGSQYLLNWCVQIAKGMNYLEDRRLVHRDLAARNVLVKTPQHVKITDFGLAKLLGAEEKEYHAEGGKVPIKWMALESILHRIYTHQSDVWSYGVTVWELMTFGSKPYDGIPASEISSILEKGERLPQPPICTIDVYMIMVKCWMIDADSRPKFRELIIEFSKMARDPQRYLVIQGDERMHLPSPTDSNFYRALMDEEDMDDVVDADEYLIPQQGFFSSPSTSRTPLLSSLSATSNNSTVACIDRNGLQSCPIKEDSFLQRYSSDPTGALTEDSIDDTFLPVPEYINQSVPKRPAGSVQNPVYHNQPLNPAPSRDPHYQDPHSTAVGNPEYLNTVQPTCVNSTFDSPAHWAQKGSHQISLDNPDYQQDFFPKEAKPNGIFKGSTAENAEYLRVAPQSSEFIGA

IC50 [nM]	SMILES
> 500000	O=C(c1ccc2cc[nH]c2c1)N1CCC(Cc2ccccc2)CC1
> 500000	O=C(c1ccc2[nH]ccc2c1)N1CCC(Cc2ccccc2)CC1

— the Kinase Knowledgebase extract (Sharma et al. 2016)
